Patent publication US12071488B2, “Method of sensitizing cancer cells to anti-cancer treatment” (TWO TO BIOTECH LTD., priority 2017, dated 2024)

Assays:
[1] = test system: human TNBC tumors (MDA-MB-231); experiment: Relative tumor volume in nude mice inoculated with TNBC cells; assay type: in vivo; conditions: MDA-MB-231 tumors
Description: To this end, mice were inoculated with TNBC cells as detailed above, briefly 32 nude mice were inoculated subcutaneously with TNBC cells (MDA-MB-231, 8×10^6 cells per mouse).

[2] = test system: Notch3 receptor; experiment: Western blot analysis of Notch3 receptor in membrane fraction of MDA-MB-231 cells; assay type: cell-based, human
Method: MDA-MB-231 cells (0.8×10^6) were seeded on five 75 cm^2 flasks in 25 ml DMEM (41965039 Gibco) medium comprising 10% fetal bovine serum (FBS), Gentamycin Sulfate (03-035-1C Biological industries) and Amphotericin B (03-029-1C Biological industries). Cells were incubated overnight in an incubator. […]
Media was then removed and the cells were scrapped off the flask by a cell scraper into 1.8 ml fresh DMEM media. Cells were collected into 2 ml Eppendorf tubes in two fractions: cytosolic proteins and membrane proteins that were extracted by Membrane Protein Extraction Kit (Thermo scientific #89842). Protease inhibitors (Sigma p2714) and phosphatase inhibitors (Sigma P5726) were added to the Permeabilization and Solubilization Buffers, as recommended by the manufacturer.
Samples were prepared for western blotting as follows: sample buffer (invitrogen cat #NP0007, 4-fold concentrated) and sample reducing agent (Invitrogen cat #NP0009, 10-fold concentrated) were added to each sample and the samples were boiled for 5 minutes. […]
The membrane was washed 3 times using TBST, and the secondary antibody αRabbit-HRP was then added (dilution 1:5000 in 5% milk in TBST) for an incubation of 1 hour at room temperature, with agitation. […] Notch 3 antibody was applied to the membrane and the quantitation of the protein was preformed and calibrated with beta-actin protein.

[3] = test system: HER2; experiment: HER2 immunohistochemistry of MDA-MB-231 tumor sections from nude mice; assay type: in vivo, Balb/C Nude mice; conditions: mice with MDA-MB-231 tumors; APC1 350 μg per mouse, three times per week, two weeks; vs saline
Method: MDA-MB-231 cells were grown in DMEM medium with Hepes (Gibco 41965-039) containing 10% heat inactivated Fetal Bovine Serum (Biological industries, #04-121-1A) and 1% Pen-Strep antibiotic (Biological industries, 03-031-1B) inside a 175 cm^2 flask (Nunc 178883). The cells were incubated at 37° C. in the presence of 5% CO2 and 95% humidity. The other cancer cells injected into mice (namely OV90 and Panc1) were prepared in a similar manner.
When a sufficient number of cells were present, the cells were centrifuged at 300 g for 5 minutes. The supernatant was discarded and 5-10 ml PBS (Biological Industries, #02-023-5A) was added to the cell pellet in order to wash the remaining medium. The cells were centrifuged again (same speed and time), the supernatant was discarded and 5-10 ml Saline was added to the cells. At this stage the cells were counted under a light microscope using a Hemocytometer, and saline was accordingly added to reach a concentration of 8×10^6 cells/200 μl.
Female Balb/C Nude mice (as detailed above) were retained in the Inventor's animal facility for at least 24 hours. Next all mice were intraperitoneally injected with 8×10^6 cells (in 200 μl saline) using a 27 G needle.
APC1 peptide was diluted in saline to the appropriate concentration in order to inject a dose of 350 μg/mouse. After the tumors reached the size of 0.5 cm×0.5 cm (usually 5 days) treatment of mice began. […]

[4] = test system: MDA-MB-231 cells; experiment: Resazurin cell viability assay with APC1 and cisplatin or doxorubicin, MDA-MB-231 cells; assay type: cell-based, human; conditions: MDA-MB-231 pre-incubated with APC1 250 μg/ml; doxorubicin 0.3, 0.5, 1 μM, 48 hours; concentration dependent
Method: Cells treated with APC1 were seeded with APC1 at 250 μg/ml. The cells were incubated overnight.
Then the media was aspirated from the plates, and 100 μl of the treatment solutions were added to the appropriate wells, each treatment in triplicates. The cells were incubated for 48 hours.

EKGAAFSPIYPRRK (C terminal peptide of KTPAF50) [APC1, polypeptide consisting of the 14 C-terminal amino acid residues of the peptide KTPAF50]
effect on tumor volume compared with doxorubicin-treated group ([1]; APC1 15 mg/kg three times a week): more pronounced
relative tumor volume ([1]; APC1 15 mg/kg, doxorubicin 3 mg/kg once a week, 5 weeks, control increased linearly): moderate increase
incubation period with highest Notch3 expression ([2]; APC1 250 μg/ml, 1, 3, 5 or 24 hours): highest for incubations periods of 3 and 5 hours
expression of active Notch3 receptor on the cell membrane ([2]; APC1 250 μg/ml, membrane protein fraction): increase
HER2 expression on the cell surface of tumor cells (immunohistochemistry) [3]: clear HER2 expression
sensitivity to doxorubicin (relative cell viability) [4]: increased the sensitivity
